Consider 22 compounds from patent US20040235798A1, “Compositions and methods for inhibiting prenyltransferases” (priority 2001, published 2004).

SMILES strings stand for the structures.

Experiment [1] has as its target T1, fungal N-myristoyltransferase (Candida albicans, UniProt P30418).
T1 sequence (P30418 1-451): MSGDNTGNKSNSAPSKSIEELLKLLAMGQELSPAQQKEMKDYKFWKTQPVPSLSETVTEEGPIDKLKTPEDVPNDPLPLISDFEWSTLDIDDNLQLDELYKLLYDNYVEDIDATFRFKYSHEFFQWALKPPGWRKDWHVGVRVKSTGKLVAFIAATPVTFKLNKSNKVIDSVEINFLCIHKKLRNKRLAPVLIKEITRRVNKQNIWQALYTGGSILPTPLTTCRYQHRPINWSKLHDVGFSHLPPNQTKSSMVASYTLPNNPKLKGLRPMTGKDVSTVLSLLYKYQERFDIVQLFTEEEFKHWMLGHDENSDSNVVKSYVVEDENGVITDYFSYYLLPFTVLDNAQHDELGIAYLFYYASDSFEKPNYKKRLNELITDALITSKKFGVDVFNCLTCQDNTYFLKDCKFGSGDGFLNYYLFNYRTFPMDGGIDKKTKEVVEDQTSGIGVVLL
The conditions noted are these: cited from earlier work.

In a further experiment the target is C. albicans GGPTase (Candida albicans, UniProt Q8J224+Q9Y764). Description: Assay protocol for determining IC50 of fungal GGPTase inhibitors (3H-GGPP, FlashPlate). The conditions noted are these: 2 nM C. albicans GGPTase, 250 nM 3H-GGPP, 250 nM C. albicans Rho; read-out: CaGGTase. The format is biochemical. The method, then: (i) Assay Protocol for Determining IC50
Chain of C. albicans GGPTase (Q9Y764 entry or part of it): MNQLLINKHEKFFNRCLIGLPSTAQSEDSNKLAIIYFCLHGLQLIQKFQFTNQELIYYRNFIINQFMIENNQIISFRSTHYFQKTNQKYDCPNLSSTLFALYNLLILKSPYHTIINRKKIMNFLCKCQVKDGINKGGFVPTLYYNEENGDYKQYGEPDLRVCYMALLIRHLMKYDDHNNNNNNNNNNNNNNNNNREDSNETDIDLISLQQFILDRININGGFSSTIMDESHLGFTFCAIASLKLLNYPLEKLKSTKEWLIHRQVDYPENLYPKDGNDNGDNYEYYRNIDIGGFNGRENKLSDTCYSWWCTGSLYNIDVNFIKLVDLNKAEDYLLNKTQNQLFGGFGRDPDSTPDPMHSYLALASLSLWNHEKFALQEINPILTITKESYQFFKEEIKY
Chain of C. albicans GGPTase (Q8J224 entry or part of it): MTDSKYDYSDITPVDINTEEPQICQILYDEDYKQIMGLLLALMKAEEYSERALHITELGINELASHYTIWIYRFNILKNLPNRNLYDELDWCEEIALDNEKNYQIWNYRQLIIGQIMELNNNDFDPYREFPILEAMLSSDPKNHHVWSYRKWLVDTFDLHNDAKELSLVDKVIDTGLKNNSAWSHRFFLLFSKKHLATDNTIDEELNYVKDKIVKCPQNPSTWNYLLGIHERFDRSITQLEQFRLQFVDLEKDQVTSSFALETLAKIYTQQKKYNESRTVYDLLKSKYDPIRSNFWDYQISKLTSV
Plate test compounds (10 μL per well) at predetermined concentration in 50% DMSO. For background control (blank) and reaction control (negative), add 10 μL of 200 μM GGPP and 10 μL 50% DMSO, respectively. Prepare assay buffer: 50 mM Tris, pH7.5, 20 mM KCL, 5 mM MgCl2, 5 μM ZnCl2, 0.5 mM Zw(3-14), 2 mM DTT and 0.1 mg/mL BSA.
Add 20 μL of C. albicans GGPTase and ^3H-GGPP in assay buffer to test compound. Preincubate enzyme and ^3H-GGPP with test compound for 15 minutes at room temperature. Add 20 μL C. albicans Rho in assay buffer. Incubate for 30 minutes at room temperature. Final assay conditions are 2 nM C. albicans GGPTase, 250 nM ^3H-GGPP and 250 nM C. albicans Rho.
Add 100 μL 15 mM GGPP, 50 mM Tris, pH 7.0 and 2% BSA to quench reaction. Transfer reaction to Nickel chelate FlashPlate. Allow his-tagged C. albcians Rho to capture onto plate. Rinse plate 1× with 200 μL 20 mM Tris, pH 7.0. Read in TOPCOUNT.

The test system of experiment [2] is C. albicans. The experiment is described as follows: In vitro susceptibility testing of compounds in C. albicans (MIC). The conditions noted are these: concentration where no visible growth is observed, 35° C., read at 24 hr and 48 hr; for MIC: Candida albicans, read-out: C. alb MIC. The format is cell-based. The method, then: (ii) In vitro Susceptibility Testing of Compounds in C. albicans […] Innoculate strain C. albicans strain such as SC5314 into 20 mL of the appropriate medium and incubate at 35° C. with shaking (220 rpm) overnight 2: Count the C. albicans cells in a 1:10 dilution of the overnight culture using a haemocytometer. 3: Work out the dilution factor required to bring the cell number to 1×10^3 cells/100 μL (equivalent to 1×10^4 cells/mL) then add the required volume of the overnight culture to 25 mL media in a falcon tube. 4: Vortex the diluted cells and immediately pipette 100 μL of the cell suspension to each of the required rows of a 96 well plate using the multipipettor 5: Prepare each of the 100× stock solutions for the compounds to be tested in DMSO in the required concentration range in Eppendorf tubes. 6: The dilution series for each of the compounds may now be prepared in sequence: For each compound—start with highest dilution. Add 10 μL compound in DMSO to the 490 μL of appropriate media. Immediately vortex and add 100 μL to the appropriate row of cells on the 96-well plate. Repeat this process for the next and subsequent concentrations of this compound before starting on the dilution series for additional compounds. 7: When complete cover the 96-well plate with an acetate sheet and incubate at 35° C. Inspect visually and record results for both plates at 24 hr and 48 hr. The MIC corresponds to the concentration of compound where no visible growth is observed.

Experiment [3] has as its system C. albicans. The experiment is described as follows: Determination of minimum fungicidal concentrations (MFC). Format: cell-based. The settings on record: concentration where no cellular growth is observed on the plate after plating out MIC wells; for MFC: Candida albicans, read-out: C. alb MFC. The method, then:
(iii) Determination of Minimum Fungicidal Concentrations (MFC) After the required time course for the MIC determination, the minimum fungicidal concentration can then be determined by plating out the entire contents of the well of the microtitre plates onto YPD or Sabourand plates. These plates are then incubated at 35° C. for 24-48 hrs. The MFC corresponds to the concentration of compound where no cellular growth is observed on the plate.

For the next experiment, the target named is CAK1 (Candida albicans, UniProt A0A1D8PH53). Description: CAK1 inhibition, time-resolved fluorescence (FRET) kinase assay with biotin-his-cdk2 substrate. The format is biochemical. The conditions noted are these: 10 nM his-CAK1, 20 μM ATP, 30 min room temperature. The method, then:
The following protocol was used for measuring CAK1 inhibition by test compounds:
A compound plate was pre-made with 20 μg/ml compound dissolved in 100% DMSO in each well of a 384-well plate (polypropylene, Coming cat # 29445-136), except for two control columns, wherein each well contained 100% DMSO.
A substrate plate was prepared by adding a pre-determined volume of substrate solution (925 nM biotin-his-cdk2 in reaction buffer) into each well of a 96-well deep-well plate (Beckman cat. 267006). To the control wells of the plate, 1/20 vol. of positive control and blank solutions were added according to the plate map. Positive control solutions are Olomoucine (MTX-277859) at 0.25, 0.75, 2.25, 6.75 mM, respectively, in DMSO, and blank solution is 50 mM EDTA in reaction buffer (50 mM Tris-HCl (pH 7.5), 50 mM NaCl, 0.1 mg/mL BSA, 100 μM MgCl2).
The reaction plate (384-well polystyrene black, Packard Opti plate, Cat.# 6005256) was loaded with a volume of 2.0 μL of samples from the compound plate and 8.0 μL of substrate solution from the substrate plate. 10 μl of enzyme solution (10 nM his-CAK1, 20 μM ATP in reaction buffer) was added to start the reaction. The plate was covered with a lid and incubated at room temperature for 30 min.
10 μl of FRET solution (45 nM streptavidin-APC*, 30 nM Europium-Ab, 3 mM EDTA in reaction buffer) was added to each of the wells of the reaction plate to stop the reaction. The time-resolved fluorescence was measured on a Wallac Victor fluorometer (excitation 340 nm, emission 665 nm, delay time 100 μs, window time 100 μs).

Chain of CAK1 (A0A1D8PH53 entry or part of it): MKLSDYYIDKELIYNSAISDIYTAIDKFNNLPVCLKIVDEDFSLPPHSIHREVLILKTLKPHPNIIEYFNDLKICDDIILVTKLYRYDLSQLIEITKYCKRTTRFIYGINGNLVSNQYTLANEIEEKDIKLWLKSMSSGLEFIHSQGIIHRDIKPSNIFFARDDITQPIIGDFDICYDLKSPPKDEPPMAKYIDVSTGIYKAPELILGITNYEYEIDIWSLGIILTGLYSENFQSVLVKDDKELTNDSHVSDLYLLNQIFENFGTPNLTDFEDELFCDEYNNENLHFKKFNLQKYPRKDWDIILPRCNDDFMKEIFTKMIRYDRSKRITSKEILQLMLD

`CN(C)C(=O)c1ccc2nc(NC(=O)[C@H]3CC[C@@H](CN)CC3)sc2c1`: the “inhibitor of fungal N-myristoyltransferase” value in experiment [1] is given as “potent inhibitor”.

For the compound `Cn1cncc1CN1CCN(C(=O)N(Cc2cccc(Cl)c2)Cc2cccc(Cl)c2)CC1C(=O)NC[C@H]1CO[C@](Cn2ccnc2)(c2ccc(Cl)cc2Cl)O1` (stereo partly shown) [Compound 1], at C. albicans GGPTase, the IC50 is below 0.1 µM. In addition, in the experiment with C. albicans [2], the MIC is below 10 µg/mL. Besides, the MFC in the experiment on C. albicans [3] was below 10 µg/mL.

Consider `C[C@H](NC(=O)C1CN(C(=O)N(Cc2cccc(Cl)c2)Cc2cccc(Cl)c2)CCN1Cc1cncn1C)[C@](O)(Cn1cncn1)c1ccc(F)cc1F` (stereo partly shown) [Compound 2], for which the IC50 on C. albicans GGPTase was below 0.1 µM. Also, the MIC in the experiment with C. albicans [2] was below 10 µg/mL. In the experiment with C. albicans [3], the MFC is below 10 µg/mL.

`Cn1cncc1CN(CC(=O)NC[C@@H]1CO[C@@](Cn2ccnc2)(c2ccc(Cl)cc2Cl)O1)C1CCN(C(=O)N(Cc2cccc(Cl)c2)Cc2cccc(Cl)c2)CC1` [Compound 4]: the IC50 at C. albicans GGPTase is below 0.1 µM. Besides, the MIC in the experiment with C. albicans [2] is below 10 µg/mL. In addition, the MFC in the experiment with C. albicans [3] was below 10 µg/mL.

On to `Cn1cncc1CN(C[C@@H]1CO[C@@](Cn2ccnc2)(c2ccc(Cl)cc2Cl)O1)C1CCN(C(=O)N(Cc2cccc(Cl)c2)Cc2cccc(Cl)c2)CC1` [Compound 5], for which the IC50 on C. albicans GGPTase is below 0.1 µM. Further, the MIC in the experiment with C. albicans [2] is below 10 µg/mL. The MFC with C. albicans [3] was below 10 µg/mL.

`Cn1cncc1CN1CCN(C(=O)N(Cc2cccc(Cl)c2)Cc2cccc(Cl)c2)C[C@@H]1CNC1CO[C@@](Cn2cncn2)(c2ccc(Cl)cc2Cl)O1` (stereo partly shown) [Compound 8]: on C. albicans GGPTase, the IC50 is below 0.1 µM. Besides, the MIC with C. albicans [2] was below 10 µg/mL. Moreover, the MFC in the experiment with C. albicans [3] is below 10 µg/mL.

Consider `Cn1cncc1CN1CCN(C(=O)N(Cc2cccc(Cl)c2)Cc2cccc(Cl)c2)C[C@@H]1CNC1CO[C@@](Cn2cncn2)(c2ccc(Cl)cc2Cl)O1` (stereo partly shown) [Compound 9], for which the “C. alb MIC” value in the experiment on C. albicans [2] is below 10 µg/mL. The “C. alb MFC” value in the experiment with C. albicans [3] is below 10 µg/mL.

For the compound `Cn1cncc1CN1CCN(C(=O)N(Cc2cccc(Cl)c2)Cc2cccc(Cl)c2)C[C@@H]1C(=O)NC[C@@H]1CO[C@@](Cn2cncn2)(c2ccc(Cl)cc2Cl)O1` [Compound 10], the IC50 on C. albicans GGPTase is below 0.1 µM. In the experiment with C. albicans [2], the MIC was below 10 µg/mL. Further, the MFC in the experiment on C. albicans [3] was below 10 µg/mL.

Consider `Cn1cncc1CN1CCN(C(=O)N(Cc2cccc(Cl)c2)Cc2cccc(Cl)c2)C[C@@H]1C(=O)NC[C@H]1CO[C@](Cn2ccnc2)(c2ccc(Cl)cc2Cl)O1` [Compound 11], for which the IC50 on C. albicans GGPTase is below 0.1 µM. Also, the minimum inhibitory concentration (MIC) in the experiment with C. albicans [2] was below 10 µg/mL. For the same compound, in the experiment with C. albicans [3], the MFC is below 10 µg/mL.

As to `Cn1cncc1CN1CCN(C(=O)N(Cc2cccc(Cl)c2)Cc2cccc(Cl)c2)C[C@@H]1C(=O)NC[C@H]1CO[C@](Cn2ccnc2)(c2ccc(Cl)cc2Cl)O1` [Compound 12], the “C. alb MIC” value with C. albicans [2] was below 10 µg/mL. In addition, the “C. alb MFC” value with C. albicans [3] was below 10 µg/mL.

Consider `Cn1cncc1CN1CCN(C(=O)N(Cc2cccc(Cl)c2)Cc2cccc(Cl)c2)C[C@@H]1C(=O)NC[C@@H]1CO[C@@](Cn2ccnc2)(c2ccc(Cl)cc2Cl)O1` [Compound 13], for which, on C. albicans GGPTase, the IC50 was below 0.1 µM. Besides, the MIC in the experiment on C. albicans [2] was below 10 µg/mL. Further, the MFC with C. albicans [3] was below 10 µg/mL.

For `Cn1cncc1CN1CCN(C(=O)N(Cc2cccc(Cl)c2)Cc2cccc(Cl)c2)C[C@H]1C(=O)NC[C@@H]1CO[C@@](Cn2ccnc2)(c2ccc(Cl)cc2Cl)O1` [Compound 14], the IC50 on C. albicans GGPTase is below 0.1 µM. Further, in the experiment on C. albicans [2], the MIC was below 10 µg/mL. Also, in the experiment with C. albicans [3], the MFC is below 10 µg/mL.

For `C[C@@H](c1nc([C@H]2CN(C(=O)N(Cc3cccc(Cl)c3)Cc3cccc(Cl)c3)CCN2Cc2cncn2C)cs1)[C@@](O)(c1ccc(F)cc1F)n1cncn1` [Compound 15], the IC50 on C. albicans GGPTase is below 0.1 µM. The MIC in the experiment on C. albicans [2] is below 10 µg/mL. For the same compound, in the experiment on C. albicans [3], the MFC is below 10 µg/mL.

`C[C@@H](c1nc(CN(Cc2cncn2C)[C@H]2CCN(C(=O)N(Cc3cccc(Cl)c3)Cc3cccc(Cl)c3)C2)cs1)[C@@](O)(c1ccc(F)cc1F)n1cncn1` [Compound 16]: at C. albicans GGPTase, the IC50 is below 0.1 µM. In the experiment on C. albicans [2], the MIC is below 10 µg/mL. Moreover, the MFC in the experiment on C. albicans [3] is below 10 µg/mL.

As to `Cc1onc(-c2c(Cl)cccc2Cl)c1C(=O)Nc1cccc(-c2ncon2)c1` [Compound 101], the IC50 against CAK1 was below 50 µM.

`O=C(CSc1ccccn1)c1ccc(OCc2ccc([N+](=O)O)cc2)cc1` [Compound 102] showed an IC50 against CAK1 below 10 µM.

The compound `CCOC(=O)c1c(NC(=O)c2c(OC)cccc2OC)sc(C)c1C` [Compound 103] yielded an IC50 on CAK1 below 50 µM.

On to `CCOC(=O)c1c(NC(=O)c2c(OC)cccc2OC)sc2c1CCC(C)C2` (stereo not shown) [Compound 104], for which the IC50 at CAK1 is above 50 µM.

Compound `O=C1CCc2cc(C(=O)CSc3ccc(Cl)cc3Cl)ccc2N1` [Compound 105] gave an IC50 at CAK1 below 50 µM.

The compound `CCOC(=O)C1=C(C)N(Cc2ccccc2)C(=O)NC1c1ccc(OC(F)(F)F)cc1` (stereo not shown) [Compound 106] returned an IC50 against CAK1 below 50 µM.

As for `O=C(c1ccccc1OCC1COC(Cn2ccnc2)(c2ccc(Cl)cc2Cl)O1)N(Cc1ccccc1)Cc1ccccc1` (stereo not shown) [Compound 107], the IC50 at CAK1 was below 10 µM.

As for `O=C(c1cc(C(O)(Cn2ccnc2)c2ccccc2)ccc1-c1ccccc1)N(Cc1ccccc1)Cc1ccccc1` (stereo not shown) [Compound 108], on CAK1, the IC50 is below 50 µM.

As usually defined, the MIC is the smallest concentration in the dilution series that meets the test's criterion for growth inhibition. The MFC is the smallest concentration meeting the test's criterion for killing the fungus.
